# Measurements published in US20170151256A1, “ANTITUMOR AGENT” (ZERIA PHARMACEUTICAL CO., LTD., priority 2005, published 2017).
# Where a name gives a salt, the structure may show the parent alone. Read-outs that look alike come from different tables or passages of the source.
# What was measured:
# [1] = test system: human colon cancer cells (HT-29); assay: HT-29 subcutaneous xenograft, alone and in combination with 5-FU; assay type: in vivo, mouse
# Protocol: 1×10^6 cells of human colon cancer cells (HT-29) were subcutaneously implanted into right abdomen of female Balb/c nude mice. […] For comparison, 5-FU was intraperitoneally administered to mice in positive control groups at doses of 3, 10, and 30 mg/kg once daily for 12 days. […] On the day following the final administration, the tumor was removed and weighed. […] Percent inhibition of tumor growth was calculated based on the tumor weights in each administration groups versus that in a control group.
# [2] = test system: human colon cancer xenograft; settings: Non-Patent Document 14, cited from earlier work
# [3] = test system: human pancreatic cancer PANC-1; settings: Non-Patent Document 12, cited from earlier work
# [4] = test system: pancreatic cancer or colon cancer xenograft; settings: only observed at a high dose of 200 mg/kg or more; Patent Document 1; cited from earlier work
# [5] = Toxicity test through 28-day repeated oral administration to dogs; assay type: in vivo
# [6] = Toxicity test through 28-day repeated oral administration to rats; assay type: in vivo
# [7] = test system: human pancreatic cancer cells (PANC-1); assay: PANC-1 implanted into pancreas, lethal model, survival rate; assay type: in vivo, mouse; settings: gemcitabine hydrochloride 100 mg/kg i.v. on days 7, 10, 14 after implantation; 40 days after administration start (46 days after implantation); female SCID mice (control […])
# Protocol: A small piece (70 to 80 mg) of human pancreatic cancer cells (PANC-1) was implanted into the pancreas of female SCID mice (15 mice for each group). […] In another group of mice, on seven, 10, and 14 days after the implantation, gemcitabine hydrochloride (Gemzar Injection®) as a positive control was intravenously injected at a dose of 100 mg/kg.
# [8] = test system: human pancreatic cancer cells (PAN1VC); assay: PAN1VC implanted into pancreas, tumor weight, alone and with gemcitabine; assay type: in vivo, mouse; settings: male nude mice
# Protocol: 1×10^6 cells of human pancreatic cancer cells (PAN1VC) were implanted into the pancreas of male nude mice. […] Percent inhibition of tumor growth was calculated based on the tumor weights in each administration groups versus that in a control group.
# [9] = test system: human pancreatic cancer cells (PANC-1); assay: PANC-1 implanted into pancreas, lethal model, survival with gemcitabine combination (Table 1); assay type: in vivo, mouse; settings: female SCID mice, compound A1 100 mg/kg oral once daily from day 7, GEM 100 mg/kg i.v. days 7, 10, 14
# Protocol: A small piece (70 to 80 mg) of human pancreatic cancer cells (PANC-1) was implanted into the pancreas of female SCID mice (15 mice for each group). […] In another group of mice, on seven, 10, and 14 days after implantation, gemcitabine hydrochloride (Gemzar Injection®) was intravenously administered at a dose of 100 mg/kg.
# [10] = test system: human colon cancer cells (HT-29); assay: HT-29 subcutaneous xenograft, tumor weight; assay type: in vivo, mouse; settings: female Balb/c nude mice
# Protocol: 1×10^6 cells of human colon cancer cells (HT-29) were subcutaneously implanted into right abdomen of female Balb/c nude mice. […] On the day following the final administration, the tumor was removed and weighed. In a control group, vehicle was orally administered to mice, and the tumor weight was measured in similar manner to that described above. Percent inhibition of tumor growth was calculated based on the tumor weights in each administration groups versus that in a control group.
# [11] = test system: human pancreatic cancer cells (MIAPaCa 2); assay: MIAPaCa 2 subcutaneous xenograft, tumor weight; assay type: in vivo, mouse; settings: female Balb/c nude mice
# Protocol: 3×10^6 cells of human pancreatic cancer cells (MIAPaCa 2) were subcutaneously implanted into right abdomen of female Balb/c nude mice. […] On the day following the final administration, the tumor was removed and weighed. For comparison, vehicle was orally administered to mice in a control group, and the tumor weight was measured in similar manner to that described above. Percent inhibition of tumor growth was calculated based on the tumor weights in each administration group versus that in a control group.
# [12] = test system: human colon cancer cells (C170HM2); assay: C170HM2 intraperitoneal model, tumor metastasis to the liver; assay type: in vivo, mouse; settings: 40 days after implantation, male nude mice
# Protocol: 1.5×10^6 cells of human colon cancer cells (C170HM2) were intraperitoneally injected into male nude mice. […] Meanwhile, in a positive control group, the combination of 5-fluorouracil (hereinafter called “5-FU”) and leucovorin were intravenously administered (for each compound, 25 mg/kg/injection) one, four, seven, and 10 days after tumor implantation. Forty days after implantation of C170HM2 tumor, the weight of tumor-metastasized liver was measured.
# [13] = dogs, 1,000 mg/kg for 28 consecutive days (summary statement)
# [14] = rats, 1,000 mg/kg for 28 consecutive days (summary statement)
# [15] = 30, 100, 300 or 1,000 mg/kg oral for 28 days, male and female beagle dogs, any group
# [16] = 30, 100, 300 or 1,000 mg/kg oral for 28 days, male and female SD rats, any group
compound,measurement,setting,value
"O=c1[nH]cc(F)c(=O)[nH]1 [5-FU, 5-fluorouracil]",Percent inhibition of tumor growth (tumor weight vs control),"[1]; 5-FU alone, 3 mg/kg i.p. once daily for 12 days",24%
same,Percent inhibition of tumor growth (tumor weight vs control),"[1]; 5-FU alone, 10 mg/kg i.p. once daily for 12 days",30%
same,Percent inhibition of tumor growth (tumor weight vs control),"[1]; 5-FU alone, 30 mg/kg i.p. once daily for 12 days",58%
C[C@](Cc1c[nH]c2ccccc12)(NC(=O)OC1[C@H]2C[C@@H]3C[C@@H](C[C@H]1C3)C2)C(=O)NC[C@H](NC(=O)CCC(=O)O)c1ccccc1 (some centres unmarked) [CI-988],Cell growth suppressive effect,"[2]; oral 25 mg/kg, without non-physiological gastrin stimulation",exhibits cell growth suppressive effect
same,Cell growth suppressive effect,[2]; oral 50 mg/kg,exhibits no cell growth suppressive effect
"Cc1cccc(NC(=O)N[C@@H]2N=C(c3ccccc3)c3ccccc3N(C)C2=O)c1 [L-365,260]",Gastrin-induced tumor growth,[3]; with gastrin stimulation,suppresses gastrin-induced tumor growth
same,Tumor growth without stimulation by gastrin,[3]; without gastrin stimulation,does not suppress tumor growth
CNc1cccc(NC(=O)N[C@@H]2N=C(c3ccccn3)c3ccccc3N(CC(=O)C(C)(C)C)C2=O)c1 [YF476],Tumor-shrinking effect,[4],exhibits tumor-shrinking effect
"CC(C)(C)C(=O)CN1C(=O)[C@H](NC(=O)Nc2cccc(C(=O)O)c2)CN(C2CCCCC2)c2ccccc21 [compound A, (R)-(−)-3-[3-(1-tert-butylcarbonylmethyl-2-oxo-5-cyclohexyl-1,3,4,5-tetrahydro-2H-1,5-benzodiazepin-3-yl)ureido]benzoic acid]","Abnormality in body weight, feed intake, ophthalmological test, urine test, organ weight, autopsy finding, histopathological test",[5]; [13],no abnormality was found
same,Deaths,[5]; [13],no deaths were observed
same,"Abnormality in body weight, feed intake, ophthalmological test, urine test, organ weight, autopsy finding, histopathological test",[6]; [14],no abnormality was found
same,Deaths,[6]; [14],no deaths were observed
Nc1ccn([C@@H]2O[C@H](CO)[C@@H](O)C2(F)F)c(=O)n1 [gemcitabine hydrochloride],Survival rate,[7],93.3%
same,Percent inhibition of tumor growth (tumor weight vs control),"[8]; gemcitabine hydrochloride alone, 5 mg/kg i.v. on days 1, 3, 6 after implantation",32%
same,Survival rate at 60 days after initiation of administration (66 days after implantation),[9]; alone or combined (control 0),0%
same,Median survival time,[9]; alone or combined (control 39),48 days
same,Survival rate at 50 days after initiation of administration (56 days after implantation),[9]; alone or combined (control 40),20%
same,Average survival time,[9]; alone or combined (control 43),46.9 days
same,Days of death of the last individual,[9]; alone or combined (control 56),54 days
"calcium (R)-(−)-3-[3-(1-tert-butylcarbonylmethyl-2-oxo-5-cyclohexyl-1,3,4,5-tetrahydro-2H-1,5-benzodiazepin-3-yl)ureido]benzoate [compound A1]","Abnormality in body weight, feed intake, ophthalmological test, electrocardiogram, blood pressure, urine test, hematological test, blood biochemical test, organ weight, autopsy finding",[5]; [15],no abnormality was found
same,Deaths,[5]; [15],no deaths were observed
same,Percent inhibition of tumor growth (tumor weight vs control),[10]; 30 mg/kg oral once daily for 17 days from 4 days after implantation,44%
same,Percent inhibition of tumor growth (tumor weight vs control),[10]; 100 mg/kg oral once daily for 17 days from 4 days after implantation,50%
same,"Abnormality in body weight, feed intake, ophthalmological test, urine test, organ weight, autopsy finding, histopathological test",[6]; [16],no abnormality was found
same,Deaths,[6]; [16],no deaths were observed
same,Percent inhibition of tumor growth (tumor weight vs control),"[8]; compound A1 alone, 30 mg/kg oral once daily for 36 days",19%
same,Percent inhibition of tumor growth (tumor weight vs control),"[8]; compound A1 alone, 100 mg/kg oral once daily for 36 days",23%
same,Percent inhibition of tumor growth (tumor weight vs control),"[1]; compound A1 alone, 30 mg/kg oral once daily for 12 days from 10 days after implantation",34%
same,Percent inhibition of tumor growth (tumor weight vs control),[11]; 30 mg/kg oral once daily for 21 days,40%
same,Percent inhibition of tumor growth (tumor weight vs control),[11]; 100 mg/kg oral once daily for 21 days,42%
same,Inhibition of tumor metastasis to the liver (weight of tumor-metastasized liver),[12]; 3 mg/kg oral once daily,73%
same,Inhibition of tumor metastasis to the liver (weight of tumor-metastasized liver),[12]; 30 mg/kg oral once daily,81%
